The record followed here is patent publication US11369650B2, “Methods for reversing multiple resistance in animal cells” (priority 2004, dated 2022).

Experiment [1] deals with U373 cells. The experiment can be described thus: Oncolysis of U373 cells by dl520 with Irinotecan and Trichostatin A, crystal violet. In kind it is cell-based. To be noted: U373, 2 μM Irinotecan. The procedure: 200,000 U373 cells were plated in a 6 well plate. After 24 hours either 2 μM Irinotecan or only 1 μM Trichostatin A or 1 μM Irinotecan+0.5 μM Trichostatin were added to the medium. After 24 hours of incubation the cells were infected with 10, 20 and 30 pfu/cell dl520. After 3-5 days the analysis was performed using crystal violet staining. The assays were performed in duplicate.
The further 6 well plates 2, 3 and 4 depicted in FIG. 22, herein also referred to as panels 2, 3 and 4, were basically treated in accordance with this scheme. The individual wells were inoculated with U373 cells as previously described and the cells cultivated therein. The wells were inoculated with 10, 20 or 30 pfu/cell dl520 in duplicate, whereby the difference between the three 6 well plates resided in the kind of cytostatics used. In panel 2 2 μM Irinotecan, in panel 3 […] and in panel 4 1 μM Irinotecan and 0.5 μM Trichostatin A was added to the individual plates.

The subject of experiment [2] is U373 tumour cells. The experiment is described as follows: Southern blot of dl520 replication after Irinotecan. In kind it is cell-based. The conditions noted are these: U373, 5 μM Irinotecan 24 h before 10 pfu/cell dl520. As for the experimental part: In order to determine the effect of Irinotecan on adenoviral replication 10^6 U373 tumour cells were plated in 10 cm^2 Petri dishes. In a first reaction 5 μM Irinotecan was added after 24 hours. After another 24 hours the cells were infected with 10 pfu/cell dl520. After incubation of 3 days without Irinotecan DNA was isolated in accordance with the procedure described in example 10.
In a parallel reaction the thus prepared U373-cells were not pre-incubated with Irinotecan. After 48 hours of cultivating the cells without Irinotecan, they were infected with 10 pfu/cell dl520 and subsequently incubated without Irinotecan for another 3 days. DNA was isolated as described above.
Subsequently […] were digested with restriction enzyme Kpn I and a Southern Blot analysis performed. A part of the adenoviral genome (position: 22734-24235) generated by means of PCR was used as a probe.

Experiment [3] concerns U373 tumour cells. The experiment is described as follows: Southern blot of dl520 replication after Trichostatin A. In kind it is cell-based. To be noted: U373, 0.25, 0.5 and 0.75 μM Trichostatin A, 10 pfu/cell dl520. The procedure:
In order to test the effect of Trichostatin A on adenoviral replication, 10^6 U373 tumour cells were plated in 10 cm^2 Petri dishes. After 24 hours 0.25, 0.5 and 0.75 μM Trichostatin A was added. After another 24 hours the cells were infected with 10 pfu/cell dl520.
After 3 days of incubation in medium without Trichostatin DNA was isolated. Subsequently 2 μg DNA were digested with restriction enzyme Kpn I and a Southern Blot analysis performed. A part of the adenoviral genome (position: 22734-24235) generated by means of PCR was used as a probe.

Experiment [4] has as its system Coxsackievirus-adenovirus-receptor (CAR) on U373 cells. The experiment can be described thus: FACS analysis of CAR expression. In kind it is cell-based. To be noted: U373, 1 μM Trichostatin, 24 hours. The procedure: 200,000 U373 cells were plated in 6 well plates. After 24 hours the cells were cultivated with 1 μM Trichostatin for 24 hours. After another 24 hours the cells were isolated. Subsequently, analysis of CAR expression was performed according to a standard protocol using Facs-analysis and the primary antibody anti-CAR clone RmcB from the company Upstate, and a rabbit-anti-mouse FITC as secondary antibody (company DAKO).

The subject of experiment [5] is HeLa cells. The experiment is described as follows: Oncolytic assay with daunorubicine and dl520, crystal violet. In kind it is cell-based. The conditions noted are these: 40 ng/ml. The procedure: (§1) In the practising of the oncolytic assays the following procedure was followed: 200,000 cells (HeLa and U2OS, respectively) were plated into each well of a 6 well plate. On the next day 40 ng/ml (final concentration) of daunorubicine were added. After 3 hours of incubation the cells were infected with 10 and 30 pfu dl520/cell, respectively. Subsequently, the cells were incubated in cytostatic free medium. After 3-5 days the cells were stained using crystal violet.

Experiment [6] deals with U2OS cells. The description is as above. In kind it is cell-based, human. The conditions noted are these: 40 ng/ml. The procedure:
as §1

In the case of `CCc1c2c(nc3ccc(OC(=O)N4CCC(N5CCCCC5)CC4)cc13)-c1cc3c(c(=O)n1C2)COC(=O)[C@]3(O)CC` [Irinotecan], in experiment [1], the “dl520 titer at which the cells were lysed” value is on record as 30 pfu/cell. For the same compound, the “adenoviral (dl520) replication compared to untreated control” value in experiment [2] was “significantly increased”.

In the case of `CC(/C=C/C(=O)NO)=C\[C@@H](C)C(=O)c1ccc(N(C)C)cc1` [Trichostatin A], the “viral (dl520) replication compared to untreated controls” value in experiment [3] is reported as “significantly increased”. Besides, the CAR-positive cells in experiment [4] is 56.2%.

On to `COc1cccc2c1C(=O)c1c(O)c3c(c(O)c1C2=O)C[C@@](O)(C(C)=O)C[C@@H]3O[C@H]1C[C@H](N)[C@H](O)[C@H](C)O1` [daunorubicine], for which the “effect of daunorubicine on replication of dl520” value in experiment [5] and in experiment [6] was “induces the replication of dl520” throughout.
